Patent US20250186436A1 (4E Therapeutics, Inc., priority 2021, published 2025)
Where “and” joins values, the source holds several entries; their conditions need not be identical. Equal values may be shown once.

Columns and labels:
paclitaxel CIPN mice = assay: Conditioned Place Preference (CPP) test with chemotherapy induced peripheral neuropathy (CIPN) mice; type: in vivo
Experimental: Mice were treated over a period of 8 days with 4 injections of paclitaxel, made in ethanol and kollipher vehicle, each at 4 mg/kg for a cumulative dose of 16 mg/kg. […] 4ET-03-053 was given with pairing with the white chamber in the CPP box with the idea that pain relief in the white chamber will counteract the natural aversion mice have to areas with bright light.

[1] = PK study in CD-1 male mice with IV and PO dosing (Example 3); type: in vivo; settings: for AUC(0-t): AUClast; for concentration at 24 h: Clast; for MRT inf: MRTinf
Experimental: Example 3: PK study of 4ET-03-053 in CD-1 male mice with IV and PO dosing
In mice, following IV administration with 1.5 mg/kg, plasma concentrations declined in a multiphasic manner with an initial concentration (Co) of 708 ng/mL and a last measurable concentration (Clast) of 5.29 ng/mL at 24 h post dose.

[2] = molecular target: T1, recombinant full length human kinase MNK2 (Homo sapiens, UniProt Q9HBH9); assay: MNK2 radiometric kinase activity assay; type: biochemical; settings: radiometric activity assay; read-out: MNK2
T1 construct: the recombinant full length human kinase MNK2; made in house; host or cells: insect cells

[3] = PK study in male Sprague-Dawley rats dosed once per day for five days, PO 25 mg/kg, 0.5% HPMC (Example 8); type: in vivo; settings: 0.5% HPMC suspension
[4] = PK study in male Sprague Dawley rats, IV 1 mg/kg and PO 10 mg/kg (Example 4); type: in vivo; settings: for clearance: CLp; for Vd: Vss; for concentration at 24 h: plasma; for AUC(0-t): AUClast
[5] = PK study in male Sprague-Dawley rats dosed once per day for five days, PO 10 mg/kg, 0.5% HPMC (Example 7); type: in vivo; settings: 0.5% HPMC suspension
[6] = male, CD-1, mouse, in vivo, iv, 1.5 mg/kg
[7] = male, CD-1, mouse, in vivo, po, 10 mg/kg
[8] = SD rats, single PO 10 mg/kg, 10% DMA/PG, individual animals, 10 mg/kg
[9] = SD rats, single PO 10 mg/kg, 10% DMA/PG, mean (n = 3)
[10] = male SD rats, 1 mg/kg IV, individual animals, 1 mg/kg
[11] = male SD rats, 1 mg/kg IV, mean (n = 3)
[12] = male, Sprague Dawley, rat, in vivo, iv, 1 mg/kg
[13] = male, Sprague-Dawley, rat, in vivo, iv, 1 mg/kg
[14] = male, Sprague-Dawley, rat, in vivo, po, 10 mg/kg

T1 sequence (Q9HBH9 whole entry): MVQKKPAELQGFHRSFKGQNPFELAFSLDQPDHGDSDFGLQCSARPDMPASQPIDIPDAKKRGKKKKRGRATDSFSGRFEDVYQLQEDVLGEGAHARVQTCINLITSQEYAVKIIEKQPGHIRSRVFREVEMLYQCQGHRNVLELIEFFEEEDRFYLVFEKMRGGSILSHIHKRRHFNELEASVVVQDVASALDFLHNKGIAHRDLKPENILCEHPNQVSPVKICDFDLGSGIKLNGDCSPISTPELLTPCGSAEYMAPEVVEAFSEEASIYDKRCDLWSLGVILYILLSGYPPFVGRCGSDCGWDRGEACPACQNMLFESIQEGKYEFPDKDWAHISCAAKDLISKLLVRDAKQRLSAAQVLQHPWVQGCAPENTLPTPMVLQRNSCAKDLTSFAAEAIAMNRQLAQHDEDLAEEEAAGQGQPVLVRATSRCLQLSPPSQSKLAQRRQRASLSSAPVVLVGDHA

In the case of `Cc1cc(Nc2cc(N)ncn2)c(=O)n2c1C(=O)NC21CCC2(CC2)CC1` [4ET-03-053, 6″-((6-Aminopyrimidin-4-yl)amino)-8″-methyl-2″H-dispiro[cyclopropane-1,1′-cyclohexane-4′,3″-imidazo[1,5-a]pyridine]-1″,5″-dione], the “CPP: time in white (drug-paired) chamber” value (paclitaxel CIPN mice; CIPN mice (paclitaxel), 10 mg/kg) is reported as “spent more time in the white chamber vs. dark chambers”, the “CPP: effect in mice without CIPN (reward)” value (paclitaxel CIPN mice; mice that did not have CIPN) is reported as “no effect” and the F ([1]; CD-1 male mice, 10 mg/kg PO, individual animals, 10 mg/kg) is reported as 75.6%. For the same molecule, the “clinical observation after dosing” value [1, 6] was “lying on side and immobile with heavy breathing for about 1 min”, the AUC(0-inf) ([1]; male, CD-1, mouse, in vivo, iv, 1.5 mg/kg, AUCinf) was 1530 ng·h/mL and the AUC(0-t) [1, 6] was 1300 ng·h/mL. It also gave a clearance ([1]; male, CD-1, mouse, in vivo, iv, 1.5 mg/kg, CLp) of 19.3 mL/min/kg, a concentration at 24 h [1, 6] of 5.29 ng/mL and an MRT inf [1, 6] of 4.93 h. It also gave a Vd ([1]; male, CD-1, mouse, in vivo, iv, 1.5 mg/kg, Vss) of 5.63 L/kg, a half-life ([1]; male, CD-1, mouse, in vivo, iv, 1.5 mg/kg, t1/2) of 6.17 h and an AUC(0-inf) ([1]; male, CD-1, mouse, in vivo, iv, 1.5 mg/kg, total systemic exposure (AUCinf)) of 1320 ng·h/mL. The Tmax [1, 7] was 0.5 h, the bioavailability [1, 7] was 75% and the “time to mean peak plasma concentration” value [1, 7] was no more than 30 min. The AUC(0-inf) ([1]; male, CD-1, mouse, in vivo, po, 10 mg/kg, AUCinf) was 6670 ng·h/mL, the AUC(0-t) [1, 7] was 6420 ng·h/mL and the concentration at 24 h [1, 7] was 33.2 ng/mL. For the same molecule, the Cmax ([1]; male, CD-1, mouse, in vivo, po, 10 mg/kg, Cmax) was 807 ng/mL, the MRT inf [1, 7] was 6.7 h and the half-life ([1]; male, CD-1, mouse, in vivo, po, 10 mg/kg, t1/2) was 5.14 h. The AUC(0-inf) ([1]; male, CD-1, mouse, in vivo, po, 10 mg/kg, total systemic exposure (AUCinf)) was 6620 ng·h/mL, the “clinical observation after dosing” value ([1]; mice, slow IV injection at 3 mg/kg, first animal) was “died immediately after a slow IV injection” and the half-life ([1]; mouse, in vivo, CD-1 male mice, 10 mg/kg PO, individual animals, read-out: t1/2 (converted)) was 5.11 h. For the same molecule, the IC50 [2] was 20.9 nM, the half-life ([3]; male, Sprague-Dawley, rat, in vivo, po, 25 mg/kg, single PO 25 mg/kg dose, individual animals) was 7.03 h and the concentration at 24 h ([3]; male, Sprague-Dawley, rat, in vivo, po, 25 mg/kg, single PO 25 mg/kg dose, mean (n = 3), read-out: Clast) was 2890 ng/mL. For the same molecule, the concentration at 24 h ([3]; male, Sprague-Dawley, rat, in vivo, po, 25 mg/kg, single PO 25 mg/kg, at 24 hr, read-out: last measurable concentration) was 2890 ng/mL, the F ([3]; single PO 25 mg/kg dose, mean (n = 3)) was 26.5% and the “time to peak plasma concentration” value ([3]; single PO 25 mg/kg) was no more than 2 h. The Tlast ([4]; SD rats, single PO 10 mg/kg, 10% DMA/PG, individual animals) was 24.0 h, the AUCinf/D [4, 8] was 23000 kg·h/kL and 24504 kg·h/kL and 18751 kg·h/kL and the Clast [4, 8] was 2710 ng/mL and 2950 ng/mL. The Cmax/D [4, 8] was 1440 kg/kL and 1960 kg/kL and 1840 kg/kL, the F [4, 8] was 44.7% and 47.6% and 36.4% and the AUCinf/D [4, 9] was 22085 kg·h/kL. The Cmax/D [4, 9] was 1747 kg/kL, the F [4, 9] was 42.9% and the Tlast [4, 9] was 24.0 h. For the same molecule, the Tlast ([4]; male SD rats, 1 mg/kg IV, individual animals) was 24.0 h, the AUCinf [4, 10] was 55049 ng·h/mL and 46264 ng·h/mL and the AUCinf/D [4, 10] was 53103 kg·h/kL and 55049 kg·h/kL and 46264 kg·h/kL. The Clast [4, 10] was 302 ng/mL and 336 ng/mL, the Co [4, 10] was 8106 ng/mL and 7353 ng/mL and 7726 ng/mL and the AUCinf/D [4, 11] was 51472 kg·h/kL. The Co [4, 11] was 7728 ng/mL, the Tlast [4, 11] was 24.0 h and the C0 [4, 12] was 7730 ng/mL. It also gave a CLp [4, 12] of 0.326 mL/min/kg, a clearance [4, 12] of 0.33 mL/min/kg and a Vd [4, 12] of 0.15 L/kg. It also gave a half-life ([4]; male, Sprague Dawley, rat, in vivo, iv, 1 mg/kg, t1/2) of 6.36 h, an AUC(0-inf) ([4]; male, Sprague Dawley, rat, in vivo, iv, 1 mg/kg, total systemic exposure (AUCinf)) of 51500 ng·h/mL and a bioavailability ([4]; male, Sprague Dawley, rat, in vivo, po, 10 mg/kg) of 42.9%. For the same molecule, the Cmax ([4]; male, Sprague Dawley, rat, in vivo, po, 10 mg/kg, peak plasma concentration (Cmax)) was 17500 ng/mL, the half-life ([4]; male, Sprague Dawley, rat, in vivo, po, 10 mg/kg, terminal half-life (t1/2)) was 9.1 h and the AUC(0-inf) ([4]; male, Sprague Dawley, rat, in vivo, po, 10 mg/kg, total systemic exposure (AUCinf)) was 221000 ng·h/mL. For the same molecule, the concentration at 24 h ([4]; male, Sprague Dawley, rat, iv, 1 mg/kg, male SD rats, 1 mg/kg IV, at 24 h, mean (n = 3), read-out: Clast) was 350 ng/mL, the concentration at 24 h ([4]; male, Sprague Dawley, rat, po, 10 mg/kg, rats, 10 mg/kg PO, 10% DMA/PG, at 24 h, read-out: last measurable concentration) was 2620 ng/mL and the AUC(0-t) [4, 13] was 51100 ng·h/mL. The clearance [4, 13] was 0.314 mL/min/kg, the MRT inf ([4]; male, Sprague-Dawley, rat, in vivo, iv, 1 mg/kg, MRTinf) was 7.24 h and the Vd [4, 13] was 0.136 L/kg. The AUC(0-inf) ([4]; male, Sprague-Dawley, rat, in vivo, iv, 1 mg/kg, male SD rats, 1 mg/kg IV, individual animals, read-out: AUCinf) was 53100 ng·h/mL, the AUC(0-inf) ([4]; male, Sprague-Dawley, rat, in vivo, iv, 1 mg/kg, male SD rats, 1 mg/kg IV, mean (n = 3), read-out: AUCinf) was 51500 ng·h/mL and the half-life ([4]; male, Sprague-Dawley, rat, in vivo, iv, 1 mg/kg, t1/2) was 6.63 h. For the same molecule, the Tmax [4, 14] was 0.5 h, the AUC(0-t) [4, 14] was 194000 ng·h/mL and the Cmax ([4]; male, Sprague-Dawley, rat, in vivo, po, 10 mg/kg, Cmax) was 14400 ng/mL. The half-life ([4]; male, Sprague-Dawley, rat, in vivo, po, 10 mg/kg, t1/2) was 9.07 h, the concentration at 24 h ([4]; male, Sprague-Dawley, rat, iv, 1 mg/kg, male SD rats, 1 mg/kg IV, individual animals, read-out: Clast) was 411 ng/mL and the concentration at 24 h ([4]; male, Sprague-Dawley, rat, po, 10 mg/kg, SD rats, single PO 10 mg/kg, 10% DMA/PG, individual animals, read-out: Clast) was 2210 ng/mL. For the same molecule, the concentration at 24 h ([4]; male, Sprague-Dawley, rat, po, 10 mg/kg, SD rats, single PO 10 mg/kg, 10% DMA/PG, mean (n = 3), read-out: Clast) was 2620 ng/mL, the “clinical observation after dosing” value ([4]; rats, 1 mg/kg IV) was “lying on side and immobile with heavy breathing for about 10 min” and the “clinical observation after dosing” value ([4]; rats, 1 mg/kg IV, 1 mg/kg) was “The second animal died right after a slow IV injection”. For the same molecule, the “time to peak plasma concentration” value ([4]; rats, 10 mg/kg PO, 10% DMA/PG) was no more than 30 m, the MRT inf ([5]; male, Sprague-Dawley, rat, in vivo, po, 10 mg/kg, single PO 10 mg/kg dose, mean (n = 3)) was 7.43 h and the AUC(0-inf) ([5]; male, Sprague-Dawley, rat, in vivo, po, 10 mg/kg, single PO 10 mg/kg, read-out: total systemic exposure (AUCinf)) was 272000 ng·h/mL. The t1/2 ([5]; single PO 10 mg/kg dose, individual animals, 10 mg/kg) was 4.83 h and 5.11 h and the “time to peak plasma concentration” value ([5]; single PO 10 mg/kg) was no more than 2 h.
